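1) Cells in 96-well plates. 2) Compound, 48 h, 5 concentrations. 3) Linear interpolation between surrounding doses. 4) Unreached endpoint = highest concentration. GI50 = concentration required for 50% inhibition of growth.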 Activity calls are given as the source filed them. Rule as the data show it: active = GI50 up to about 1.1 µM and inactive = higher.
Legend:
Assay in all cases: NCI tumour cell line growth inhibition, 48 h
[1] = tested on: 786-0
[2] = tested on: A498
[3] = tested on: A549
[4] = tested on: ACHN
[5] = tested on: CCRF-CEM
[6] = tested on: COLO 205
[7] = tested on: DLD-1
[8] = tested on: DMS-273
[9] = tested on: EKVX
[10] = tested on: HCC 2998
[11] = tested on: HCT-116
[12] = tested on: HCT-15
[13] = tested on: HL-60
[14] = tested on: HOP-18
[15] = tested on: HOP-62
[16] = tested on: HT-29
[17] = tested on: IGROV-1
[18] = tested on: K562
[19] = tested on: KM-20L2
[20] = tested on: KM12
[21] = tested on: LOX IMVI
[22] = tested on: LXFL 529
[23] = tested on: M14
[24] = tested on: M19-MEL
[25] = tested on: MOLT-4
[26] = tested on: Malme-3M
[27] = tested on: NCI-H226
[28] = tested on: NCI-H23
[29] = tested on: NCI-H460
[30] = tested on: NCI-H522
[31] = tested on: OVCAR-3
[32] = tested on: OVCAR-4
[33] = tested on: OVCAR-5
[34] = tested on: OVCAR-8
[35] = tested on: RXF 393
[36] = tested on: RXF 631
[37] = tested on: SF-268
[38] = tested on: SF-295
[39] = tested on: SF-539
[40] = tested on: SK-MEL-28
[41] = tested on: SK-MEL-2
[42] = tested on: SK-MEL-5
[43] = tested on: SK-OV-3
[44] = tested on: SN12C
[45] = tested on: SNB-19
[46] = tested on: SNB-75
[47] = tested on: SNB-78
[48] = tested on: SR
[49] = tested on: SW-620
[50] = tested on: TK-10
[51] = tested on: U-251
[52] = tested on: UACC-257
[53] = tested on: UO-31
[54] = tested on: XF498
[55] = tested on: CAKI-1
[56] = tested on: DMS-114
[57] = tested on: HOP-92
[58] = tested on: UACC-62
[59] = tested on: BT-549
[60] = tested on: DU-145
[61] = tested on: Hs-578T
[62] = tested on: MCF7
[63] = tested on: MDA-MB-231
[64] = tested on: MDA-MB-435
[65] = tested on: MDA-N
[66] = tested on: NCI/ADR-RES
[67] = tested on: PC-3
[68] = tested on: T47D

## COC(=O)C(CCCC1(c2ccccc2)OCCO1)C(C)=O (configuration not stated)
[1]
  GI50: > 100 µM (inactive)
[2]
  GI50: > 100 µM (inactive)
[3]
  GI50: > 100 µM (inactive)
[4]
  GI50: 38.1 µM (inactive)
[5]
  GI50: > 100 µM (inactive)
[6]
  GI50: > 100 µM (inactive)
[7]
  GI50: > 100 µM (inactive)
[8]
  GI50: > 100 µM (inactive)
[9]
  GI50: > 100 µM (inactive)
[10]
  GI50: > 100 µM (inactive)
[11]
  GI50: > 100 µM (inactive)
[12]
  GI50: > 100 µM
[13]
  GI50: > 100 µM (inactive)
[14]
  GI50: > 100 µM (inactive)
[15]
  GI50: > 100 µM (inactive)
[16]
  GI50: > 100 µM (inactive)
[17]
  GI50: > 100 µM (inactive)
[18]
  GI50: 91.8 µM (inactive)
[19]
  GI50: > 100 µM (inactive)
[20]
  GI50: > 100 µM (inactive)
[21]
  GI50: > 100 µM (inactive)
[22]
  GI50: > 100 µM (inactive)
[23]
  GI50: > 100 µM (inactive)
[24]
  GI50: > 100 µM (inactive)
[25]
  GI50: > 100 µM (inactive)
[26]
  GI50: > 100 µM (inactive)
[27]
  GI50: 40.9 µM (inactive)
[28]
  GI50: > 100 µM (inactive)
[29]
  GI50: > 100 µM (inactive)
[30]
  GI50: 64 µM (inactive)
[31]
  GI50: > 100 µM (inactive)
[32]
  GI50: > 100 µM (inactive)
[33]
  GI50: > 100 µM (inactive)
[34]
  GI50: > 100 µM (inactive)
[35]
  GI50: > 100 µM (inactive)
[36]
  GI50: > 100 µM (inactive)
[37]
  GI50: > 100 µM (inactive)
[38]
  GI50: > 100 µM (inactive)
[39]
  GI50: > 100 µM (inactive)
[40]
  GI50: > 100 µM (inactive)
[41]
  GI50: > 100 µM (inactive)
[42]
  GI50: 66.4 µM (inactive)
[43]
  GI50: > 100 µM (inactive)
[44]
  GI50: > 100 µM (inactive)
[45]
  GI50: > 100 µM (inactive)
[46]
  GI50: 30.2 µM (inactive)
[47]
  GI50: > 100 µM (inactive)
[48]
  GI50: 85.1 µM (inactive)
[49]
  GI50: > 100 µM (inactive)
[50]
  GI50: > 100 µM (inactive)
[51]
  GI50: > 100 µM (inactive)
[52]
  GI50: 90.2 µM (inactive)
[53]
  GI50: > 100 µM (inactive)
[54]
  GI50: > 100 µM (inactive)

## CC(C)(C)OC(=O)N1C2CCCC23O[C@@H]1c1cc2c(cc1C3=O)OCO2 (some centres not stated)
[1]
  GI50: 34.5 µM (inactive)
[2]
  GI50: > 10 µM (inactive)
[3]
  GI50: 29.4 µM (inactive)
[4]
  GI50: 54.1 µM (inactive)
[55]
  GI50: 9.57 µM (inactive)
[5]
  GI50: 21.1 µM (inactive)
[7]
  GI50: 27.1 µM (inactive)
[56]
  GI50: 19.9 µM (inactive)
[8]
  GI50: 6.27 µM (inactive)
[9]
  GI50: 43.9 µM (inactive)
[11]
  GI50: 36.3 µM (inactive)
[13]
  GI50: 5.25 µM (inactive)
[15]
  GI50: 23.6 µM (inactive)
[57]
  GI50: 28.6 µM (inactive)
[16]
  GI50: 14.5 µM (inactive)
[17]
  GI50: 20 µM (inactive)
[18]
  GI50: 6.5 µM (inactive)
[20]
  GI50: 14.4 µM (inactive)
[22]
  GI50: 44.3 µM (inactive)
[23]
  GI50: 12.3 µM (inactive)
[24]
  GI50: 26.6 µM (inactive)
[25]
  GI50: 24.6 µM (inactive)
[26]
  GI50: 25.6 µM (inactive)
[27]
  GI50: 81.1 µM (inactive)
[28]
  GI50: 24.9 µM (inactive)
[29]
  GI50: 34 µM (inactive)
[30]
  GI50: 8.89 µM (inactive)
[31]
  GI50: 8.81 µM (inactive)
[32]
  GI50: > 100 µM (inactive)
[33]
  GI50: > 100 µM (inactive)
[34]
  GI50: 61.1 µM (inactive)
[35]
  GI50: 24.5 µM (inactive)
[36]
  GI50: 27.2 µM (inactive)
[37]
  GI50: 41.8 µM (inactive)
[38]
  GI50: 20.8 µM (inactive)
[39]
  GI50: 19.5 µM (inactive)
[40]
  GI50: 67.3 µM (inactive)
[41]
  GI50: 53.3 µM (inactive)
[42]
  GI50: 4.41 µM (inactive)
[43]
  GI50: 27.3 µM (inactive)
[44]
  GI50: 41.2 µM (inactive)
[45]
  GI50: 39.2 µM (inactive)
[46]
  GI50: 12.6 µM (inactive)
[47]
  GI50: > 100 µM (inactive)
[48]
  GI50: 32.1 µM (inactive)
[49]
  GI50: 22.4 µM (inactive)
[50]
  GI50: 41 µM (inactive)
[51]
  GI50: 41.3 µM (inactive)
[52]
  GI50: 52.8 µM (inactive)
[58]
  GI50: 6.24 µM (inactive)
[53]
  GI50: 39.6 µM (inactive)
[54]
  GI50: 26.6 µM (inactive)

## CC[C@](O)(C(=O)O)c1cc2n(c(=O)c1CO)Cc1cc3ccccc3nc1-2
[1]
  GI50: 0.00366 µM (active)
[2]
  GI50: 0.0398 µM (active)
[3]
  GI50: 0.0261 µM (active)
[4]
  GI50: 0.0025 µM (active)
[59]
  GI50: 0.0791 µM (active)
[55]
  GI50: 0.025 µM (active)
[5]
  GI50: 0.025 µM (active)
[6]
  GI50: 0.234 µM (active)
[56]
  GI50: 0.025 µM (active)
[8]
  GI50: 0.025 µM (active)
[60]
  GI50: 0.0137 µM (active)
[9]
  GI50: 0.0371 µM (active)
[10]
  GI50: 0.324 µM (active)
[11]
  GI50: 0.0308 µM (active)
[12]
  GI50: 0.0964 µM
[13]
  GI50: 0.025 µM (active)
[14]
  GI50: 0.0436 µM (active)
[15]
  GI50: 0.0025 µM (active)
[57]
  GI50: 0.112 µM (active)
[16]
  GI50: 0.0461 µM (active)
[61]
  GI50: 6.05 µM (inactive)
[17]
  GI50: 0.0652 µM (active)
[19]
  GI50: 0.0535 µM (active)
[22]
  GI50: 0.692 µM (active)
[23]
  GI50: 0.00292 µM (active)
[24]
  GI50: 0.0336 µM (active)
[62]
  GI50: 0.061 µM (active)
[63]
  GI50: 0.665 µM (active)
[64]
  GI50: 0.0532 µM (active)
[65]
  GI50: 0.0373 µM (active)
[25]
  GI50: 0.0257 µM (active)
[26]
  GI50: 0.0975 µM (active)
[28]
  GI50: 0.025 µM (active)
[29]
  GI50: 0.025 µM (active)
[30]
  GI50: 0.0306 µM (active)
[66]
  GI50: 0.0254 µM (active)
[32]
  GI50: 0.214 µM (active)
[33]
  GI50: 0.0566 µM (active)
[67]
  GI50: 0.131 µM (active)
[35]
  GI50: 0.0384 µM (active)
[36]
  GI50: 0.084 µM (active)
[38]
  GI50: 0.025 µM (active)
[39]
  GI50: 0.0697 µM (active)
[41]
  GI50: 0.23 µM (active)
[42]
  GI50: 0.0333 µM (active)
[43]
  GI50: 0.0372 µM (active)
[44]
  GI50: 0.025 µM (active)
[45]
  GI50: 0.025 µM (active)
[46]
  GI50: 0.0333 µM (active)
[48]
  GI50: 0.01 µM (active)
[68]
  GI50: 0.0324 µM (active)
[50]
  GI50: 0.282 µM (active)
[51]
  GI50: 0.025 µM (active)
[58]
  GI50: 0.025 µM (active)
[53]
  GI50: 0.0372 µM (active)
[54]
  GI50: 0.0968 µM (active)
